Measurements as given in EP2261259B1, “Immunoassay for N-(3-chlorophenyl)piperazine-based anti-depressants” (Randox Laboratories Ltd., priority 2009, dated 2010).
In brackets after ≈: the same amount, converted by molar mass.

System: antibody of the invention
Experiment: Competitive ELISA (antibody-coated microtitre plate, hapten-HRP conjugate, TMB, absorbance at 450 nm)
Assay type: binding, sheep
Conditions: for %CR: percentage cross-reactivity based on 100% specificity to nefazodone; for %B/B0: B0 = absorbance at 0 ng/ml; for A450: absorbance at 450 nm; for IC50: standard concentration which produces 50% B/B0
Method: The process of developing an immunoassay is well known to the person skilled in the art. […] The serum from the immunised animal is collected when the antibody titre is sufficiently high. A conjugate is added to a sample containing the target analyte and the raised antibodies, and the conjugate and analyte compete for binding to the antibodies. The process may comprise fixing said serum antibodies to a backing substrate such as a polystyrene solid support or a biochip. The antibodies can be polyclonal or monoclonal. The signal emitted in the immunoassay is proportionate to the amount of conjugate bound to the antibodies which in turn is inversely proportionate to the analyte concentration. The signal can be detected or quantified by comparison with a calibrator.
The resulting immunogens were administered separately to adult sheep on a monthly basis to provide target-specific polyclonal antisera. IgG was extracted from the antisera via Caprylic acid/ammonium sulphate precipitation of immunoglobulin. Microtitre plates (Thermo Scientific, 95029180) were coated with antibody (125µl) in coating buffer (10mM Tris pH 8.5) at 37°C for 2 hours. Antibody was coated at 2.5µg/ml. The plates were then washed. […] The plates were then washed and 125µl of TMB (Randox, 4380-15) was added to each well and left at room temperature for 20mins in the dark. The reaction was stopped using 125µl of 0.2M sulphuric acid. The absorbancies were read at 450nm with an ELISA microplate reader (BIO-TEK Instruments, EL340) and the means calculated. Antibody specificity and sensitivity were then determined

[1] = standard concentration 0.156 ng/ml
[2] = standard concentration 0.313 ng/ml
[3] = standard concentration 0.625 ng/ml
[4] = standard concentration 1.250 ng/ml
[5] = standard concentration 2.500 ng/ml
[6] = standard concentration 5.000 ng/ml
[7] = standard concentration 10.000 ng/ml

## O=c1n(CCCN2CCN(c3cccc(Cl)c3)CC2)nc2ccccn12 [Trazodone, 2-{3-[4-(3-chlorophenyl)-1-piperazinyl]propyl}-[1,2,4]triazolo[4,3-a]pyridin-3(2H)-one]
  %CR: 733%
[1]
  %B/B0: 67%
  A450: 1.456
[2]
  %B/B0: 58%
  A450: 1.271
[3]
  %B/B0: 48%
  A450: 1.041
[4]
  %B/B0: 35%
  A450: 0.763
[5]
  %B/B0: 25%
  A450: 0.551
[6]
  %B/B0: 18%
  A450: 0.398
[7]
  %B/B0: 13%
  A450: 0.287

## CCc1nn(CCCN2CCN(c3cccc(Cl)c3)CC2)c(=O)n1CCOc1ccccc1 [Nefazodone, 2-{3-[4-(3-chlorophenyl)-1-piperazinyl]propyl}-5-ethyl-4-(2-phenoxyethyl)-1,2,4-triazol-3-one]
  %CR: 100%
  IC50: 3.901 ng/mL (≈ 0.0083 µM)
[1]
  %B/B0: 91%
  A450: 1.850
[2]
  %B/B0: 83%
  A450: 1.671
[3]
  %B/B0: 73%
  A450: 1.467
[4]
  %B/B0: 58%
  A450: 1.168
[5]
  %B/B0: 46%
  A450: 0.923
[6]
  %B/B0: 34%
  A450: 0.683
[7]
  %B/B0: 24%
  A450: 0.494

## Clc1cccc(N2CCNCC2)c1 [mCPP, N-(3-chlorophenyl)piperazine]
  %CR: 46%
  IC50: 8.476 ng/mL (≈ 0.0431 µM)
[1]
  %B/B0: 85%
  A450: 1.821
[2]
  %B/B0: 79%
  A450: 1.679
[3]
  %B/B0: 72%
  A450: 1.534
[4]
  %B/B0: 65%
  A450: 1.380
[5]
  %B/B0: 55%
  A450: 1.183
[6]
  %B/B0: 48%
  A450: 1.027
[7]
  %B/B0: 42%
  A450: 0.888
